What was measured:
chamomile [1] = test: Test D postemergence; type: in vivo, Matricaria inodora; conditions: Tripleurospermum inodorum, post-emergence, scale 0 to 100 (0 no effect, 100 complete control), read-out: Plant response rating, Chamomile
Outline: (§1)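 Species were sown in silt loam for preemergence treatment, or grown in peat-based medium to the 1–4-leaf stage (2–18 cm) for postemergence sprays. Test chemicals were formulated in a non-phytotoxic solvent mixture with surfactant. After 7–21 days in a controlled environment, plants were rated visually against controls on a 0 (no effect) to 100 (complete control) scale.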

green foxtail = test: Test D postemergence; type: in vivo, Setaria viridis; conditions: Setaria viridis, post-emergence, scale 0 to 100 (0 no effect, 100 complete control), read-out: Plant response rating, Foxtail, Green
Outline: as §1

kochia = test: Test D preemergence; type: in vivo, Kochia scoparia; conditions: Bassia scoparia, pre-emergence, scale 0-100, read-out: Plant response rating, Kochia
Outline: as §1

field poppy = test: Test D preemergence; type: in vivo, Papaver rhoeas; conditions: Papaver rhoeas, pre-emergence, scale 0-100, read-out: Plant response rating, Field Poppy
Outline: as §1

spring wheat = test: Test D postemergence; type: in vivo, Triticum aestivum; conditions: Triticum aestivum, post-emergence, scale 0 to 100 (0 no effect, 100 complete control), read-out: Plant response rating, Wheat, Spring
Outline: as §1

winter wheat = test: Test D postemergence; type: in vivo, Triticum aestivum; conditions: Triticum aestivum, post-emergence, scale 0 to 100 (0 no effect, 100 complete control), read-out: Plant response rating, Wheat, Winter
Outline: as §1

windgrass = test: Test D preemergence; type: in vivo, Apera spica-venti; conditions: Apera spica-venti, pre-emergence
Outline: as §1

field violet = test: Test D preemergence; type: in vivo, Viola arvensis; conditions: Viola arvensis, pre-emergence, scale 0-100, read-out: Plant response rating, Field Violet
Outline: as §1

sandbur = test: Test E postemergence; type: in vivo, Cenchrus echinatus; conditions: Cenchrus echinatus, post-emergence, read-out: Plant response rating, Sandbur
Outline: (§2)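 Compound in a non-phytotoxic solvent mixture with surfactant was applied preemergence to seeds in silt loam soil, or postemergence to plants 2 to 18 cm tall grown in peat-based potting medium. Plants were kept in a greenhouse for 14 to 21 days, then rated visually against untreated controls on a 0 (no effect) to 100 (complete control) scale.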

wild oat = test: Test D preemergence; type: in vivo, Avena fatua; conditions: Avena fatua, pre-emergence, scale 0-100, read-out: Plant response rating, Oat, Wild
Outline: as §1

galium = test: Test D preemergence; type: in vivo, Galium aparine; conditions: Galium, pre-emergence, scale 0-100, read-out: Plant response rating, Galium
Outline: as §1

[2] = system: waterhemp_RES2 (ALS & HPPD resistant common waterhemp); test: Test E postemergence; type: in vivo, Amaranthus rudis; conditions: Amaranthus tuberculatus, post-emergence, read-out: Plant response rating, Waterhemp_RES2
Outline: as §2

waterhemp = test: Test E postemergence; type: in vivo, Amaranthus rudis; conditions: Amaranthus tuberculatus, post-emergence, Postemergence, scale 0 to 100, read-out: Plant response rating, Waterhemp
Outline: as §2

chamomile [3] = test: Test D preemergence; type: in vivo, Matricaria inodora; conditions: Tripleurospermum inodorum, pre-emergence, scale 0-100, read-out: Plant response rating, Chamomile
Outline: as §1

[4] = Postemergence, 31 g ai/ha, scale 0 to 100
[5] = Postemergence, 62 g ai/ha, scale 0 to 100
[6] = Postemergence, 125 g ai/ha, scale 0 to 100
[7] = Postemergence, 250 g ai/ha, scale 0 to 100
[8] = postemergence, 16 g ai/ha, scale 0 to 100, 0 no effect, 100 complete control

Work on N#Cc1cccc(Oc2ncc(Br)cn2)c1-n1cc(C(F)(F)F)cn1 [Compound 59, 3-[(5-bromo-2-pyrimidinyl)oxy]-2-[4-(trifluoromethyl)-1H-pyrazol-1-yl]benzonitrile] yielded a pest or weed control at 31 g/ha (chamomile [1]; 31 g ai/ha) of 5%, a pest or weed control at 62 g/ha (chamomile [1]; 62 g ai/ha) of 10% and a pest or weed control at 125 g/ha (chamomile [1]; 125 g ai/ha) of 10%. The pest or weed control at 250 g/ha (chamomile [1]; 250 g ai/ha) was 15%, the pest or weed control at 31 g/ha (green foxtail; 31 g ai/ha) was 20% and the pest or weed control at 62 g/ha (green foxtail; 62 g ai/ha) was 35%. For the same molecule, the pest or weed control at 125 g/ha (green foxtail; 125 g ai/ha) was 50%, the pest or weed control at 250 g/ha (green foxtail; 250 g ai/ha) was 80% and the pest or weed control at 31 g/ha (kochia; 31 g ai/ha) was 90%. For the same molecule, the pest or weed control at 62 g/ha (kochia; 62 g ai/ha) was 80%, the pest or weed control at 125 g/ha (kochia; 125 g ai/ha) was 100% and the pest or weed control at 250 g/ha (kochia; 250 g ai/ha) was 100%. It also gave a pest or weed control at 31 g/ha (field poppy; 31 g ai/ha) of 95%, a pest or weed control at 62 g/ha (field poppy; 62 g ai/ha) of 100% and a pest or weed control at 125 g/ha (field poppy; 125 g ai/ha) of 100%. It also gave a pest or weed control at 250 g/ha (field poppy; 250 g ai/ha) of 100%, a plant injury at 31 g/ha (spring wheat; 31 g ai/ha) of 10% and a plant injury at 62 g/ha (spring wheat; 62 g ai/ha) of 15%. The plant injury at 125 g/ha (spring wheat; 125 g ai/ha) was 20%, the plant injury at 250 g/ha (spring wheat; 250 g ai/ha) was 25% and the plant injury at 31 g/ha (winter wheat; 31 g ai/ha) was 10%. The plant injury at 62 g/ha (winter wheat; 62 g ai/ha) was 15%, the plant injury at 125 g/ha (winter wheat; 125 g ai/ha) was 20% and the plant injury at 250 g/ha (winter wheat; 250 g ai/ha) was 20%. For the same molecule, the pest or weed control at 31 g/ha (windgrass; 31 g ai/ha, scale 0 (no effect) to 100 (complete control), read-out: Plant response rating, Windgrass) was 70%, the pest or weed control at 62 g/ha (windgrass; 62 g ai/ha, scale 0-100, read-out: Plant response rating, Windgrass) was 100% and the pest or weed control at 125 g/ha (windgrass; 125 g ai/ha, scale 0-100, read-out: Plant response rating, Windgrass) was 100%. It also gave a pest or weed control at 250 g/ha (windgrass; 250 g ai/ha, scale 0-100, read-out: Plant response rating, Windgrass) of 100%, a pest or weed control at 31 g/ha (field violet; 31 g ai/ha) of 65% and a pest or weed control at 62 g/ha (field violet; 62 g ai/ha) of 85%. It also gave a pest or weed control at 125 g/ha (field violet; 125 g ai/ha) of 100%, a pest or weed control at 250 g/ha (field violet; 250 g ai/ha) of 100% and a pest or weed control at 31 g/ha (sandbur; [4]) of 0%. The pest or weed control at 62 g/ha (sandbur; [5]) was 0%, the pest or weed control at 125 g/ha (sandbur; [6]) was 10% and the pest or weed control at 250 g/ha (sandbur; [7]) was 20%. The pest or weed control at 16 g/ha (sandbur; [8]) was 0%, the pest or weed control at 31 g/ha (wild oat; 31 g ai/ha) was 0% and the pest or weed control at 62 g/ha (wild oat; 62 g ai/ha) was 0%. It also gave a pest or weed control at 125 g/ha (wild oat; 125 g ai/ha) of 20%, a pest or weed control at 250 g/ha (wild oat; 250 g ai/ha) of 55% and a pest or weed control at 31 g/ha (galium; 31 g ai/ha) of 0%. For the same molecule, the pest or weed control at 62 g/ha (galium; 62 g ai/ha) was 95%, the pest or weed control at 125 g/ha (galium; 125 g ai/ha) was 60% and the pest or weed control at 250 g/ha (galium; 250 g ai/ha) was 100%. For the same molecule, the pest or weed control at 31 g/ha [2, 4] was 85%, the pest or weed control at 62 g/ha [2, 5] was 90% and the pest or weed control at 125 g/ha [2, 6] was 95%. It also gave a pest or weed control at 250 g/ha [2, 7] of 100%, a pest or weed control at 16 g/ha [2, 8] of 75% and a pest or weed control at 31 g/ha (waterhemp; 31 g ai/ha) of 65%. It also gave a pest or weed control at 62 g/ha (waterhemp; 62 g ai/ha) of 90%, a pest or weed control at 125 g/ha (waterhemp; 125 g ai/ha) of 90% and a pest or weed control at 250 g/ha (waterhemp; 250 g ai/ha) of 100%. For the same molecule, the pest or weed control at 31 g/ha (chamomile [3]; 31 g ai/ha) was 10%, the pest or weed control at 62 g/ha (chamomile [3]; 62 g ai/ha) was 15% and the pest or weed control at 125 g/ha (chamomile [3]; 125 g ai/ha) was 95%. The pest or weed control at 250 g/ha (chamomile [3]; 250 g ai/ha) was 85%.
